Source: US20260308158A1, “TARGETING RNAS ASSOCIATED WITH TAUOPATHIES WITH SMALL MOLECULES” (University of Florida Research Foundation, Incorporated, priority 2023, published 2026)

What was measured:
[1] = test system: WT MAPT mini-gene (exon 10 splicing); assay: 4R/3R MAPT mRNA by RT-qPCR, HeLa cells transfected with WT mini-gene; type: cell-based
Description: RNA Isolation and Real-Time Quantitative PCR (RT-qPCR). HeLa cells were treated as described in the Luciferase Reporter assay to Study Exon 10 Alternative Splicing. LAN5 cells were seeded in 12-well plates at 0.2×10^6 cells per well, treated with compound or ASO, and incubated for 48 h. Compound stocks prepared in DMSO and ASO stocks prepared in water were diluted in growth medium and added to cells. Total RNA was extracted from cells and analyzed via RT-qPCR to determine levels of 3R and 4R tau mRNA. In brief, the cells were washed with 1×DPBS and then lysed in the well using 300 μL of Lysis Buffer provided in a Quick-RNA MiniPrep kit (Zymo Research), which was used to extract total RNA per the manufacturer's protocol including the on-column DNase I digestion. The concentration of total RNA was measured by NanoDrop 2000 (Thermo Fisher Scientific). Only samples with OD260/OD280>1.8 were carried forward for analysis. Reverse transcription (RT) was carried out on 200 ng of total RNA using a qScript cDNA synthesis kit (QuantaBio) in a total volume of 10 μL according to the manufacturer's protocol. […] 4R/3R ratio were analyzed using ΔΔCt method using Equation 2: […]

[2] = test system: WT I17T MAPT mini-gene (exon 10 splicing); assay: 4R/3R MAPT mRNA by RT-qPCR, HeLa cells transfected with WT I17T mini-gene; type: cell-based
Description: (§1) RNA Isolation and Real-Time Quantitative PCR (RT-qPCR). HeLa cells were treated as described in the Luciferase Reporter assay to Study Exon 10 Alternative Splicing. LAN5 cells were seeded in 12-well plates at 0.2×10^6 cells per well, treated with compound or ASO, and incubated for 48 h. Compound stocks prepared in DMSO and ASO stocks prepared in water were diluted in growth medium and added to cells. Total RNA was extracted from cells and analyzed via RT-qPCR to determine levels of 3R and 4R tau mRNA. In brief, the cells were washed with 1×DPBS and then lysed in the well using 300 μL of Lysis Buffer provided in a Quick-RNA MiniPrep kit (Zymo Research), which was used to extract total RNA per the manufacturer's protocol including the on-column DNase I digestion. The concentration of total RNA was measured by NanoDrop 2000 (Thermo Fisher Scientific). Only samples with OD260/OD280>1.8 were carried forward for analysis. Reverse transcription (RT) was carried out on 200 ng of total RNA using a qScript cDNA synthesis kit (QuantaBio) in a total volume of 10 μL according to the manufacturer's protocol. An Applied Biosystems QS5 384-well PCR system was used to complete qPCR reactions with Power SYBR Green Master Mix (Life Technologies), 600 nM each primer (Table S3), 20 ng of cDNA (1 μL of the RT reaction), in a total volume of 33 μL. Technical triplicates (10 μL each) were aliquoted into 384-well qPCR plates (Applied biosystems, 4483285). Subsequent qPCR analysis was performed using an Applied Biosystems QS5 384-well PCR system (software v.1.3.0). 4R/3R ratio were analyzed using ΔΔCt method using Equation 2: […]
(§2) where ΔCt 4R or ΔCt 3R is the difference between the Ct values for the 4R or 3R MAPT mRNA and a housekeeping gene (18S rRNA) in total RNA from cells.

[3] = test system: MAPT exon 10 splicing in LAN5 cells; assay: 4R/3R endogenous MAPT mRNA by RT-qPCR in LAN5 neuroblastoma cells; type: cell-based
Description: as §1, §2

DDPAC MAPT SRE RNA = assay: Fluorescent binding affinity, DDPAC SRE RNA; details: inherent fluorescence, n=3
Description: Fluorescent Binding Affinity Measurements. Binding assays were completed as previously described.^30 Briefly, the RNA of interest was folded in 1× Assay Buffer-1 (AB1: 8 mM Na2HPO4, pH 7.0, 185 mM NaCl, and 1 mM EDTA) by heating at 95° C. for 30 s followed by slowly cooling to room temperature. Bovine serum albumin (BSA) was then added to a final concentration of 40 μg/mL to afford 1× Assay Buffer-2 (AB2: 8 mM Na2HPO4, pH 7.0, 185 mM NaCl, 1 mM EDTA, and 40 μg/mL BSA). The RNA solution was serial diluted with 1×AB2. Then, compound of interest was added to the RNA solutions to a final concentration of 0.5 μM. […] Fluorescence intensity was measured using a Tecan Plate Reader (Gain: 100, Integration time: 40 μs). […] The change in fluorescence of the small molecule was calculated by its comparison to samples lacking RNA. Binding affinity was calculated using Equation 1, as previously described:^30
where I and I0 are the measured fluorescence intensity of the compound with or without RNA, respectively, Δε is the difference between the fluorescence intensity with the infinite concentration of RNA and the fluorescence intensity without RNA, [SM]0 and [RNA]0 are the concentrations of the small molecule (SM) and RNA, respectively, and Kd is the dissociation constant.

DDPAC model RNA = assay: Optical melting, DDPAC RNA; type: binding; details: 2 at 1.5 μM
Description: Optical Melting Experiments. The thermal stabilities of WT, DDPAC, and DDPAC+I17T model RNAs were analyzed by optical melting in the presence or absence of compound 1 or 2 as previously described.^18 The RNAs (2 μM) were heated to 95° C. in 1×PBS buffer and slowly cooled to room temperature. The samples were then cooled to 15° C. in the presence of compound 1 (10 μM; 0.1% (v/v) DMSO), 2 (1.5 μM; 0.1% (v/v) DMSO) or vehicle (0.1% (v/v) DMSO) and then heated to 85° C. at a rate of 1° C. per min. Absorbance as a function of temperature was measured at 260 nm using a Beckman Coulter DU800 UV/vis spectrophotometer. Melting curves were fitted with MeltWin 3.5.^31

[4] = test system: MAPT exon 10 splicing in htau mice; assay: MAPT exon 10 splicing in brain of htau mice (RT-qPCR); type: in vivo, human MAPT in htau mouse; details: 100 mg/kg p.o. q.o.d., 20 days
Description: as §1
hTau Mice Studies. htau mice and WT mice (C57BL/6J) were purchased from Jackson Laboratories. htau mice were maintained in-house through breeding between htau+/− mice. Genotype was confirmed by PCR amplification as previously described.^18 Only homozygous mice were used in in vivo studies. Mice were randomly assigned to a treatment group, which were age- and gender-matched (n=X). […] During the treatment period, nesting activity was assessed, as describe in Nesting Activity below. […]

[5] = Body weight / tolerability, WT mice; type: in vivo, WT mouse (C57BL/6J); details: 100 mg/kg p.o. q.o.d., 20 days
Source text: hTau Mice Studies. htau mice and WT mice (C57BL/6J) were purchased from Jackson Laboratories. htau mice were maintained in-house through breeding between htau+/− mice. Genotype was confirmed by PCR amplification as previously described.^18 Only homozygous mice were used in in vivo studies. Mice were randomly assigned to a treatment group, which were age- and gender-matched (n=X). In these studies, mice were >9 months of age since cognitive and physiological impairments in htau mice was age-dependent and were not presented in young mice (<4 months) with early-stage tau pathology.^42 Mice were orally administered vehicle (5/5/90 DMSO/Tween-80/H2O) or 100 mg/kg of 2 in the same formulation every other day (q.o.d.). During the treatment period, nesting activity was assessed, as describe in Nesting Activity below. After 20 days, the mice were euthanized (in accordance with guidelines provided by the American Veterinarian Medical Association), and the brain was harvested for analysis. One hemisphere of the brain was frozen at −80° C. for RT-qPCR analyses while the other was used for histological studies.

COc1cc(N)ncc1CCCN(C)CCCn1cnc2c3ccccc3n(C)c2c1=O [Compound 2, 3-(3-((3-(6-amino-4-methoxypyridin-3-yl)propyl)(methyl)amino)propyl)-5-methyl-3,5-dihydro-4H-pyrimido[5,4-b]indol-4-one]
PSI10 (PSI of MAPT exon 10) vs vehicle ([1]; HeLa, WT mini-gene): downregulated | inhibition at 1.5 µM ([1]; Homo sapiens, 2 at 1.5 μM, 48 h, HeLa WT mini-gene, read-out: reduction of 4R/3R ratio (mRNA)): 41 ± 3% | PSI10 (PSI of MAPT exon 10) vs vehicle [2]: not WT I17T or DDPAC I17T mutant | change in 4R/3R ratio (not statistically significant) ([2]; 1 at 10 μM or 2 at 1.5 μM): < 16% | inhibition at 1.5 µM ([3]; LA-N-5, 2 at 1.5 μM, LAN5, 48 h, RT-qPCR, read-out: reduction of 4R/3R ratio of MAPT RNA): 56 ± 4% | PSI10 (PSI of MAPT exon 10) vs vehicle ([3]; LAN5 cells): downregulated | Kd (DDPAC MAPT SRE RNA): 580 ± 100 nM | increase of Tm (DDPAC model RNA): 1.36±0.11 °C | total human MAPT transcript levels ([4]; htau mice): without alteration of total human MAPT transcript levels | reduction of 4R/3R ratio ([4]; htau mice brain): 38±5% | reduction of PSI10 ([4]; htau mice brain): 12±2% | change in weight [5]: no change in the weight
